In PubChem BioAssay AID489023 (Sanford-Burnham Center for Chemical Genomics, 2010) one finds IC50 data, which are given here for 88 molecules.

SMILES strings stand for the structures. Activity calls are given as the source filed them. The rule behind the calls is not given here.

The assay deals with 697B cells, BCR-induced NF-kB luciferase reporter luminescence. The experiment in a line: inhibitors of BCR-induced NF-kB activation, dose response, 697B cells, luciferase luminescence (AID 489023).
For the molecule `Cc1ccc(/C=C2\SC(=S)N(CCCC(=O)NC3CCCC3)C2=O)cc1`, the IC50 (as a rule, the midpoint of a concentration-inhibition curve) was 1.13 µM.
The result for `Cc1nnc2c3ccccc3c(-c3ccccc3)nn12` reads > 80 µM (inactive).
To `Cc1csc(NC(=O)/C=C/c2ccc3c(c2)OCO3)n1` belongs 6.13 µM; to `COc1cccc(N2CCN(c3ncnc4c3[nH]c3ccc(F)cc34)CC2C)c1` (stereo not drawn), 0.79 µM; to `COc1cc(-c2cc(=O)c3c(O)c(OC)c(OC)c(OC)c3o2)cc(OC)c1OC`, > 80 µM (inactive).
To `CN(CC1CCCO1)S(=O)(=O)c1ccc(C(=O)Nc2nc3cc4c(cc3s2)OCO4)cc1` (stereo not drawn) belongs > 80 µM (inactive); to `CC(C)(C)c1ccc(-c2noc(CCC(=O)NCc3ccco3)n2)cc1`, below 0.16 µM; to `COc1ccc2nc(C)cc(Sc3nc4ccccc4s3)c2c1`, 1.81 µM.
Consider `Cc1ccc(Nc2nc(N3CCOCC3)nc(N3CCOCC3)n2)cc1C`, for which the half-inhibitory concentration (IC50) was 1.33 µM.
`Cc1cc(=O)[nH]c2c(C)cc(S(=O)(=O)N3CCCCC3)cc12`: the IC50 was > 80 µM (inactive).
To `Cc1ccc(/C=C2\SC(=S)N(CCCC(=O)Nc3cccnc3)C2=O)cc1` belongs 0.25 µM; to `Cc1ccc(/C=C2\SC(=S)N(CCC(=O)NNC(=O)c3ccncc3)C2=O)cc1`, > 80 µM (inactive).
To `COc1ccc(/C=C2\SC(=S)N(CCC(=O)Nc3ccc(C(=O)O)cc3)C2=O)cc1OC` belongs > 80 µM (inactive); to `N=c1ccn2c(n1)OC1C(O)C(CO)OC12` (stereo not drawn), below 0.16 µM.
The result for `O=C(O)CCn1c(O)c(C=C2N=c3ccccc3=N2)sc1=S` reads 17 µM.
On to `CCc1ccc(/C=C2\SC(=S)N(CCCC(=O)Nc3ccccn3)C2=O)cc1`, for which the IC50 is 0.55 µM.
The result for `COc1ccc(-n2c(-c3ccc(Cl)cc3)c[n+]3c2CCc2ccccc2-3)cc1` reads > 80 µM (inactive).
As for `COc1cccc(-c2noc(CCC(=O)NCCc3ccccc3)n2)c1`, the IC50 is 5.65 µM.
To `COc1ccccc1/C=C1\SC(=S)N(CCC(=O)Nc2cccc(O)c2)C1=O` belongs > 80 µM (inactive); to `O=c1cccc2c1c1cc[nH]c3ccc(=O)n2c31`, 2.1 µM; to `O=S(=O)(NCc1ccncc1)c1ccc(Br)s1`, > 80 µM (inactive).
To `CCN(CC)c1ccc2cc(NC(=O)CCC(=O)O)c(=O)oc2c1` belongs 1.23 µM; to `COc1ccc(C(=O)Nc2ccc(OC)c([N+](=O)[O-])c2)cc1Br`, > 80 µM (inactive).
The result for `O=C(Cc1cccc2ccccc12)Nc1ccc(-c2cc3ccccc3oc2=O)cc1` reads below 0.16 µM; that for `CCN(C(=O)CN1C(=O)NC(c2ccccc2)(c2ccc(C)c(C)c2)C1=O)C1CCCCC1` (stereo not drawn), 48.4 µM (inactive).
`CCOc1ccc(-c2nnc(SCC(=O)Nc3cc(C)on3)o2)cc1`: the IC50 was 12 µM.
The result for `O=C(CCCN1C(=O)/C(=C/c2ccccc2Cl)SC1=S)Nc1ccccn1` reads 3.97 µM; that for `CC1=CC(C)(C)Nc2ccc(OC(=O)C(C)N3C(=O)c4ccccc4C3=O)cc21` (stereo not drawn), 6.85 µM; that for `COc1ccc(/C=N/OCC(=O)NC(c2ccccc2)c2ccccc2)cc1OC`, > 80 µM (inactive).
The result for `CN(C)c1cc[n+](Cc2c(Cl)cccc2Cl)cc1` reads > 80 µM (inactive).
The result for `C=CCOc1ccc(/C=C2\SC(=S)N(CCC(=O)O)C2=O)cc1` reads 0.63 µM.
Consider `CCn1c(=O)cc(SCC(=O)N2CCC(C)CC2)c2ccccc21`, for which the IC50 was > 80 µM (inactive).
To `O=C(Nc1nc2nc(-c3ccccc3)cc(-c3ccccc3)n2n1)c1ccco1` belongs 48.3 µM (inactive); to `COc1cc(OC)c(/C=N/NC(N)=S)cc1Br`, 34.2 µM (inactive).
Regarding `CCOC(=O)N1CCN(c2ncnc3c2[nH]c2ccc(OC)cc23)CC1`, the IC50 is 60 µM (inactive).
The result for `CCn1c(=O)c2cc(C(=O)NCc3cccs3)sc2c2ccccc21` reads > 80 µM (inactive); that for `CCOC(=O)CNC(=O)CSc1nnc(NC(=O)c2ccc(C)cc2)s1`, 6.84 µM; that for `CC1Cc2ccccc2N1S(=O)(=O)c1cnc(Cl)c(Cl)c1` (stereo not drawn), > 80 µM (inactive).
As to `Cc1nn(-c2ccc(N3CCCCC3)nn2)c(C)c1CCC(=O)Nc1ccccc1F`, the IC50 is > 80 µM (inactive).
In the case of `COc1ccc(C(=O)Nc2cccc(NC(=O)c3ccc(OC)c(OC)c3)n2)cc1OC`, the IC50 was 3.64 µM.
For `O=C(CCl)N(c1ccc(Cl)cc1)c1c[nH]c2ccccc12`, the half-inhibitory concentration (IC50) was 0.27 µM.
The result for `O=C1NC[C@H](c2ccccc2)OC(=O)[C@@H](Cc2ccc(F)cc2)C/C=C\C[C@H]1CC(=O)N(CCO)Cc1ccccc1` reads 9.87 µM; that for `CCOCCCNc1nc2c(C)cccn2c(=O)c1/C=C1\SC(=S)N(C(C)CC)C1=O` (stereo not drawn), 36.3 µM (inactive); that for `Cn1c(=O)n(C)c2cc(NS(=O)(=O)c3ccccc3)ccc21`, 38.3 µM (inactive).
To `O=C(CCCN1C(=O)/C(=C/c2ccccc2Cl)SC1=S)NNC(=O)c1ccccc1` belongs 12.5 µM; to `Cc1ccccc1-c1cc(C(=O)Nc2sc(C(=O)OC(C)C)c(C)c2C#N)c2ccccc2n1`, 42.8 µM (inactive); to `CCCCCOc1ccc(NC(=O)C(=O)NCCCn2ccnc2)cc1`, 4.78 µM.
To `CC(C)Oc1ccc(C(=O)Nc2ccc(N(C)C)cc2)cc1` belongs 61.3 µM (inactive).
Regarding `CC(C)(C)c1ccc(-n2ncc3c2CCCC3NC(=O)C2(C(N)=O)CC2)cc1` (stereo not drawn), the IC50 is > 80 µM (inactive).
The result for `Cn1c(=O)cc(OCCCC(=O)NCc2ccccn2)c2ccccc21` reads > 80 µM (inactive).
As to `COc1ccc(-c2nsc(SCC(=O)Nc3cc(C)on3)n2)cc1`, the IC50 is 46.3 µM (inactive).
`COc1ccc(-c2ccc(OC)c([C@H]3[C@H]4C=CC[C@@H](C)[C@@H]4C(=O)N3Cc3ccccc3)c2)cc1`: the IC50 is > 80 µM (inactive).
The result for `C=CCn1c(O)c(C(CC)=NC(C)c2ccccc2)c(=O)[nH]c1=O` (stereo not drawn) reads 56.4 µM (inactive).
As for `COc1ccc(S(=O)(=O)Nc2cc3c(C(C)=O)c(C)oc3c3ccccc23)cc1`, the IC50 was > 80 µM (inactive).
To `CCC(C)NC(=O)c1c(N)n(/N=C/c2ccccn2)c2nc3ccccc3nc12` (stereo not drawn) belongs 23.2 µM (inactive); to `COc1ccc(-c2ccc(C(C)=O)cc2)cc1[C@H]1[C@H]2C=CC[C@@H](C)[C@@H]2C(=O)N1Cc1ccccc1`, > 80 µM (inactive); to `CC(C)(C)c1ccc(-c2noc(CCC(=O)NCC3CCCO3)n2)cc1` (stereo not drawn), 0.21 µM.
The result for `CCn1c(CN2CCN(c3ccc(Cl)cc3)CC2)nc2ccccc21` reads > 80 µM (inactive); that for `CCc1ccc(/C=C2\SC(=S)N(CCC(=O)NC3=NCCS3)C2=O)cc1`, 12.4 µM; that for `Cn1c(=O)cc(OCCCC(=O)NC2CCCC2)c2ccccc21`, 34.4 µM (inactive).
The result for `Cc1nn(C(C)(C)C)c(OC(=O)c2ccc(Br)o2)c1Sc1ccccc1` reads > 80 µM (inactive).
Turning to `O=[N+]([O-])c1ccc(Sc2cc[n+]([O-])c3ccccc23)c([N+](=O)[O-])c1`, the IC50 was 0.59 µM.
The result for `CCN1C(=O)c2cccc3c(S(=O)(=O)Nc4ccccc4)ccc1c23` reads 40.4 µM (inactive); that for `COc1ccc(-c2n(Cc3ccccc3)c3ccccc3[n+]2Cc2ccccc2)cc1`, > 80 µM (inactive); that for `CCn1c(=O)cc(SCC(=O)N2CCC3(CC2)OCCO3)c2ccccc21`, > 80 µM (inactive).
The result for `Cc1ccc(NC(=O)C2CCC(CNc3c(N4CCC(C)CC4)c(=O)c3=O)CC2)cc1F` (stereo not drawn) reads > 80 µM (inactive); that for `Cc1ccc(C(=O)C[n+]2cc(-c3ccc(C)cc3)n3c2CCCCC3)cc1`, 38.9 µM (inactive).
The result for `CC1CCN(C(=O)CCCOc2cc(=O)n(C)c3ccccc23)CC1` reads > 80 µM (inactive); that for `CC1=CC(C)(C)Nc2ccc(OC(=O)c3ccco3)cc21`, 8.24 µM.
With `O=C(CCCN1C(=O)/C(=C/c2ccccc2Cl)SC1=S)NNC(=O)c1ccccc1Cl`, the IC50 is 4.23 µM.
To `Cc1ccc(Sc2cc(NCCCO)c([N+](=O)[O-])c3nonc23)cc1` belongs > 80 µM (inactive); to `C(=N\Nc1nc(Nc2ccccc2)nc(N2CCOCC2)n1)/c1c[nH]c2ccccc12`, below 0.16 µM; to `CC(C)(O)/C=C/C(=O)[C@](C)(O)C1[C@H](O)C[C@@]2(C)C3CC=C4C(C[C@H](O)[C@@H](O)C4(C)C)[C@]3(C)C(=O)C[C@]12C` (stereo partly drawn), 35.1 µM (inactive).
To `CN(C)CCCN=Cc1c(-c2ccccc2)[nH]n(-c2nc3ccccc3s2)c1=O` belongs 5.81 µM.
To `COC(=O)CSc1nnc(-c2sc3ccccc3c2Cl)o1` belongs 10.3 µM.
Consider `Cc1noc(C)c1CSc1nc2[nH]ncc2c(=O)n1-c1ccccc1`, for which the IC50 was > 80 µM (inactive).
The result for `CC(C)(C)c1ccc(-c2cc(N)n[nH]2)cc1` reads 15.6 µM.
To `O=C(CN1C(=O)c2ccccc2S1(=O)=O)c1ccc(Cl)cc1Cl` belongs 0.44 µM; to `O=C(NCCC1CCCCN1S(=O)(=O)c1ccc(Cl)cc1)C(=O)NCc1ccncc1` (stereo not drawn), 4.22 µM.
The result for `O=C(CSCCO)Nc1ccc(C23CC4CC(CC(C4)C2)C3)cc1` reads > 80 µM (inactive); that for `COc1ccc(/C=C2\SC(=O)N(CCCC(=O)Nc3ccc(C(=O)O)cc3)C2=O)cc1OC`, 7.83 µM.
Take `COc1ccc(C=C(C(C)=O)C(C)=O)cc1OC`: the IC50 was 57.7 µM (inactive).
Consider `CN1C(=O)c2cccc3c(S(=O)(=O)Nc4ccccc4F)ccc1c23`, for which the IC50 was 57.4 µM (inactive).
The result for `O=C(CCCN1C(=O)/C(=C/c2ccccc2Cl)SC1=S)Nc1cccnc1` reads 1.75 µM; that for `COc1ccc(-c2noc(N3CCC(C(=O)Nc4ccc(OC)c(OC)c4)CC3)n2)cc1`, > 80 µM (inactive); that for `COc1ccc(/C=C2\SC(=S)N(CCCC(=O)NNC(=O)c3ccccc3O)C2=O)cc1`, 0.68 µM.
The result for `CC1(c2nnc(-c3cccc(Cl)c3)o2)CC(c2cccc(Cl)c2)=NO1` (stereo not drawn) reads > 80 µM (inactive); that for `Cc1cc(NC(=O)CCCN2C(=O)/C(=C/c3ccccc3Cl)SC2=S)no1`, 8.86 µM.
